Source: patent publication US7632528B1, “Antimigraine combination comprising Sapindus and Emblica extracts” (Lupin Limited, priority 2000, dated 2009)
Where a name gives a salt, the structure may show the parent alone.

Key:
migraine attacks = settings: cited from earlier work
patients having migraine = assay: Multi-centric double blind clinical studies (placebo, flunarizine, internal crossover); format: in vivo, human
Description: The objective of this study was to evaluate the efficacy and tolerability of the formulation as a prophylactic monotherapy in comparison with a placebo in patients having migraine. Patients were included in the study based on the following criteria: those aged between 15–60 years, diagnosed as having migraine as per International Headache Society Classification (IHSC) guidelines; those with at least two or more attacks of acute migraine per month for at least 6 months; women of child bearing age who take contraceptive measures during the study and those taking no other prophylactic therapy during the study period or alteast one month prior to the study. A detailed ENT examination was conducted prior to the study to rule out any nasal pathology. A written consent was taken from each patient.
Patients with more than 8 attacks a month, unstable angina, hypertension, cardiac failure, severe left ventricular failure, atrophic rhinitis, nasal polyposis, patients taking any prophylactic medication within 1 month of the study, patients with psychiatric disorders, pregnant/nursing women, patients with glaucoma and Parkinson's disease were excluded from the study.
This study, a multi-centric, randomised placebo controlled double blind (test formulation versus matched saline placebo) was conducted at five centres. A non-randomised single blind (test formulation versus flunarizine) study was conducted at two of the five centres. An internal crossover study was done at three of the five centres by cross over of patients in the test formulation and placebo groups.
The duration of study was eight months. The period of treatment was three months. Patients later on were crossed over internally (test formulation and placebo) for further treatment of three months and a follow-up period of two months. One drop of the test formulation was administered into each nostril two times a day, once in the morning and once in the evening. One drop of placebo was administrated into each nostril, once in the morning and once in the evening. flurnarizine tablet (10 mg) was administered once a day orally.
The enrolled patients underwent a general examination, E.N.T. examination and laboratory tests. Each patient was given a diary to record the details of the migraine, episodes, any adverse events(pre- and post-treatment) as well as details of rescue modification taken, if any. The same was also recorded by the investigator.
Patients were instructed on how to record the details of various visual symptoms, nausea, vomiting and headache (viz. time of onset, relief, and any additional treatment) and grade them according to severity (4 point scale) in diary. The recorded observations in the diary were reviewed every month of the study period.
The efficacy of the prophylactic treatment was evaluated on the following basis: • At least 50% reduction in the intensity or duration of migraine attacks (mean duration of migraine in hours) per month at the end of 12 weeks of treatment, compared to baseline. • Reduction in the frequency of attack per month using test formulation and flunarizine compared to placebo (>or =50%). • Consumption of drugs for symptomatic relief of breakthrough attacks in the three groups. • At least 50% or more reduction of attack in patients who respond to test formulation compared to the reduction of attack in patients given placebo. • The safety and patient compliance of test formulation was assessed on the basis of incidence and severity of side effects in each groups compared to placebo and number of drop outs in each group compared to placebo. Results
The results of the trial was statistically analysed based on the following parameters:
• 1. Atleast 50% reduction in the frequency of migraine attacks • 2. Atleast 50% reduction in the duration of migraine attacks • 3. Reduction in the severity of migraine attacks [graded as none (0), mild (1), moderate (2) and severe (3) • 4. […]

[1] = Colouration of the formulation on storage; format: physicochemical; settings: 3 months
Description: To prevent any colouration during storage of the formulation it is preferable to add an anti-oxidant to prevent the colouration. Sodium metabisulfite is preferably used. When this anti-oxidant is not added the colour of the solution changes from initial colourless to straw yellow to dark yellow in one month's time and to dark brown in three months. Addition of sodium bisulfite arrests the change in colouration. This can be used in a concentration ranging from 0.020% to 0.080% wt/vol of the composition. A range of 0.04 to 0.05% being the most preferred
Tabulation of the colour change as a function of the concentration of the sodium meta bisulfite concentration is given below in Table-III.
The importance of purging the entire system with nitrogen reflects in the colouration to the product. When no nitrogen is bubbled in to the system the colour of the formulation changes to yellow within 3 months, indicating degradation. In batches where the system is constantly kept under nitrogen atmosphere, no change in colouration is observed even after 3 months.

nasal mucosa = assay: Nasal mucosal irritation as a function of additives in the formulation; format: in vivo; settings: used as the preservative of the aqueous formulation
[2] = end of third follow-up, comparison with flunarizine

## CN1C[C@H](C(=O)N[C@]2(C)O[C@@]3(O)[C@@H]4CCCN4C(=O)[C@H](Cc4ccccc4)N3C2=O)C=C2c3cccc4[nH]cc(c34)C[C@H]21 [Ergotamine, Ergotamine tartrate]
Migraine attacks; over that observed on use of NSAIDs
  incidence of side effects: 17–41%

## Fc1ccc(C(c2ccc(F)cc2)N2CCN(C/C=C/c3ccccc3)CC2)cc1 [Flunarizine, flunarizine]
Patients having migraine; 3 months treatment
  DROP OUT RATE (%): 43%
Patients having migraine; at each follow-up
  Reduction in mean frequency of attacks: significant difference reduction in the mean frequency of attacks at the end each follow up
Patients having migraine; at the follow-ups
  Reduction in the duration of attacks: significant reduction in the duration of attacks only at the end of the second and third follow-up
Patients having migraine; end of third follow up, comparison with flunarizine
  Patients with ≧50% REDUCTION IN DURATION: 52.0%
Patients having migraine; [2]
  Patients with ≧50% REDUCTION IN DISABILITY: 69.6%
  Patients with ≧50% REDUCTION IN SEVERITY: 42.3%
Patients having migraine; third follow up, comparison with flunarizine
  Patients with ≧50% REDUCTION IN FREQUENCY: 81.5%

## O=S([O-])S(=O)(=O)[O-].[Na+].[Na+] [Sodium meta bisulfite]
[1]; sodium meta bisulfite 0.020 % w/v
  Change in colour: Colourless→light brown (3 months)
[1]; sodium meta bisulfite 0.040 % w/v
  Change in colour: Colourless→light Yellow (3 months)
[1]; sodium meta bisulfite 0.050 % w/v
  Change in colour: Colourless→very light Yellow (3 months)
[1]; sodium meta bisulfite 0.075 % w/v
  Change in colour: Remains Colourless (3 months)
[1]; sodium meta bisulfite 0.080 % w/v
  Change in colour: Remains Colourless (3 months)

## CNS(=O)(=O)Cc1ccc2[nH]cc(CCN(C)C)c2c1 [Sumatriptan, sumatriptan]
Migraine attacks; in one hour, placebo less than 27%
  relief to migraine attacks: 70%

## benzalkonium chloride
Nasal mucosa
  Mucosal irritation: causes mucosal irritation
